Laboratory results reported in patent publication US20250144087A1, “USE OF VE607 FOR THE TREATMENT OF SARS-COV-2 INFECTIONS AND RELATED DISEASES” (priority 2022, published 2025).

Legend:
[1] = test system: pseudoviral particles expressing the Spike from SARS-CoV-2; experiment: microbe, parasite or virus in culture; format: cell-based; conditions: SARS-CoV-2 D614G pseudovirus
[2] = test system: SARS-CoV-2 D614G Spike Y505T pseudoviral particles; format: cell-based
[3] = test system: pseudoviral particles bearing the Spike glycoproteins from the major VOCs (Alpha, Beta, Gamma, Delta and Omicron); format: cell-based, SARS-CoV-2
[4] = molecular target: interaction of sACE2 with the full SARS-CoV-2 Spike expressed at the cell surface (Severe acute respiratory syndrome coronavirus 2, UniProt P0DTC2, D614G); format: binding
[5] = test system: SARS-CoV-2 D614G Spike Q498V pseudoviral particles; format: cell-based
SARS-CoV-2 Spike = SARS-CoV-2 Spike (Severe acute respiratory syndrome coronavirus 2, UniProt P0DTC2, D614G); format: cell-based
[6] = test system: authentic SARS-CoV-2 D614G; format: cell-based

Row | Structure (SMILES) | capacity to neutralize SARS-CoV-2 pseudovirus particles compared with commercially available VE607 [1] | IC50 [2] | IC50 values [3] | competition with sACE2 for interaction with Spike [4] | IC50 [5] | S1 shedding / trimer stability (SARS-CoV-2 Spike) | IC50 [6]
1 | O[C@@H](COc1cccc(OC[C@H](O)CN2CCCCC2)c1)CN1CCCCC1 [(R,R)-VE607, (2R,2′R)-3,3′-(1,3-phenylenebis(oxy))bis(1-(piperidin-1-yl)propan-2-ol)] | same capacity as commercially available VE607 |  |  |  |  |  | 
2 | O[C@H](COc1cccc(OC[C@@H](O)CN2CCCCC2)c1)CN1CCCCC1 [(S,S)-VE607, (2S,2'S)-3,3′-(1,3-phenylenebis(oxy))bis(1-(piperidin-1-yl)propan-2-ol)] | same capacity as commercially available VE607 |  |  |  |  |  | 
3 | C=CCC(/C=C/OCC(O)CN(CC)CCC)OCC(O)CN(CC)CCC (centres unmarked) [VE607] |  | > 40000 nM | low micromolar range | no competition | 1800 nM | decrease shedding | 2420 nM
